According to publication PMC10175918 (Communications Biology, 2023):
Where two headings read alike, the source gives them in different places.

Tests used:
Assay in all cases: TGFα-shedding assay-based GPCR screening with chimeric Gα subunit proteins
Assay type in all cases: cell-based
348 GPCRs [1] = target: T1, 348 GPCRs (Homo sapiens, UniProt Q9NS75)
T1 construct: expressed in transfected cells; host or cells: HEK293A
T1 sequence (Q9NS75 1-346): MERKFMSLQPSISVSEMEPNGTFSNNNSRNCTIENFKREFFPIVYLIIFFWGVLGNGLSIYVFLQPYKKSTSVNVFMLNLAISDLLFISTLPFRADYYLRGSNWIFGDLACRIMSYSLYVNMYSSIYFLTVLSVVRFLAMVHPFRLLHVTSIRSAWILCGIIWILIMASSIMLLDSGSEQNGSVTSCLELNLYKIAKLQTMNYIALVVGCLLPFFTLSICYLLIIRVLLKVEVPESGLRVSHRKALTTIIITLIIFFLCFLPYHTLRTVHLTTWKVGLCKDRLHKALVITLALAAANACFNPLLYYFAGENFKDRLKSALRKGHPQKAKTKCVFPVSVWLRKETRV

348 GPCRs [2] = target: T2, 348 GPCRs (Homo sapiens, UniProt P28336); settings: 10µM, Favipiravir 100μM
T2 construct: expressed in transfected cells; host or cells: HEK293A

348 GPCRs [3] = target: T3, 348 GPCRs (Homo sapiens, UniProt P30556); settings: 10µM, Favipiravir 100μM
T3 construct: expressed in transfected cells; host or cells: HEK293A
T3 sequence (P30556 1-359): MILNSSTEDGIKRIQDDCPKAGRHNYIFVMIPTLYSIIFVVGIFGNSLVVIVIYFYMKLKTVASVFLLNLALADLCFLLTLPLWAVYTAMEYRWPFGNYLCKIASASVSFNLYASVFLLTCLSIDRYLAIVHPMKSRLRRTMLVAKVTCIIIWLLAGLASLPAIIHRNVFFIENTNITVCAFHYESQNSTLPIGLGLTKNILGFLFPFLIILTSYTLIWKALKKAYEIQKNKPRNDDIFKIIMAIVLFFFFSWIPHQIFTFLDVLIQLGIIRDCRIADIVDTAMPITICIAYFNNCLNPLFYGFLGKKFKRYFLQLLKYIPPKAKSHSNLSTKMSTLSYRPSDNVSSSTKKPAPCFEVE

348 GPCRs [4] = target: 348 GPCRs (Homo sapiens, UniProt P35372); settings: 10µM, Favipiravir 100μM
348 GPCRs [5] = target: T4, 348 GPCRs (Homo sapiens, UniProt Q7Z7M1); settings: 10µM, Favipiravir 100μM
T4 construct: expressed in transfected cells; host or cells: HEK293A

348 GPCRs [6] = target: T5, 348 GPCRs (Homo sapiens, UniProt P08908); settings: 10µM, Favipiravir 100μM
T5 construct: expressed in transfected cells; host or cells: HEK293A
T5 sequence (P08908 1-422): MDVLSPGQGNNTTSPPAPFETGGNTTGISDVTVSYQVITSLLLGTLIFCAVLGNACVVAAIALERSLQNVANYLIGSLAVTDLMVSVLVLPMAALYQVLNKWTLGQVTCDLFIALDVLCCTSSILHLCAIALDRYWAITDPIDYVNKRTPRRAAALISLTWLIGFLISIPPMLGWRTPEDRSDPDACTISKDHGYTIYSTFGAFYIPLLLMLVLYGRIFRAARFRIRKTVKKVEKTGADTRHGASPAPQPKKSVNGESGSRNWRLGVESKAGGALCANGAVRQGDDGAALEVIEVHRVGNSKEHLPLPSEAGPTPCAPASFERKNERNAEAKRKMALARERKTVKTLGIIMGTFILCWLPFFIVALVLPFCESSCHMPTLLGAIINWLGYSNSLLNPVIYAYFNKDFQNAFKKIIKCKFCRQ

348 GPCRs [7] = target: T6, 348 GPCRs (Homo sapiens, UniProt Q6W5P4); settings: 10µM, Favipiravir 100μM
T6 construct: expressed in transfected cells; host or cells: HEK293A
T6 sequence (Q6W5P4 1-371): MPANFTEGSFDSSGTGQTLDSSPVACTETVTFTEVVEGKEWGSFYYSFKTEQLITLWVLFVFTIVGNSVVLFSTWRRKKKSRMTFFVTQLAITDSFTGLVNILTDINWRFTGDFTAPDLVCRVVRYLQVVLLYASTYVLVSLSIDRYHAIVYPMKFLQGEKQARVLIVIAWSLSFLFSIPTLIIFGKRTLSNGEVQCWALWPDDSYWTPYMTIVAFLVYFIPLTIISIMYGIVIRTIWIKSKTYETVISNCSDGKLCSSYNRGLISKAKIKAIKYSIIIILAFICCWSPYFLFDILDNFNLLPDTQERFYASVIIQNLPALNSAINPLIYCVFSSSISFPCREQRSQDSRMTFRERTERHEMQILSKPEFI

348 GPCRs [8] = target: T7, 348 GPCRs (Homo sapiens, UniProt Q99679); settings: 10µM, Favipiravir 100μM
T7 construct: expressed in transfected cells; host or cells: HEK293A

348 GPCRs [9] = target: T8, 348 GPCRs (Homo sapiens, UniProt Q02643); settings: 10µM, Favipiravir 100μM
T8 construct: expressed in transfected cells; host or cells: HEK293A
T8 sequence (Q02643 23-423): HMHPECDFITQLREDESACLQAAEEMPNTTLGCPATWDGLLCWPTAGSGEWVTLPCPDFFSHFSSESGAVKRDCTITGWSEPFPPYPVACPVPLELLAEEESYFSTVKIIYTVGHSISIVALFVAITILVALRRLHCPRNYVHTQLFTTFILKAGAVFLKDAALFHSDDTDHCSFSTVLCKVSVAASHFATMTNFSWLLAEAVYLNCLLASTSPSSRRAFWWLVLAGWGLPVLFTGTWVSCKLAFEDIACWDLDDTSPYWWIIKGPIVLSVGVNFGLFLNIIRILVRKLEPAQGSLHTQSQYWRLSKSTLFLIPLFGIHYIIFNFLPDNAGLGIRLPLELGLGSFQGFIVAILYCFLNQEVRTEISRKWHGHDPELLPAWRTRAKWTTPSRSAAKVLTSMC

348 GPCRs [10] = target: T9, 348 GPCRs (Homo sapiens, UniProt Q15722); settings: 10µM, Favipiravir 100μM
T9 construct: expressed in transfected cells; host or cells: HEK293A

[11] = GPCR CYSLTR2 (cysteinyl leukotriene receptor 2), read-out: % GPCR activation compared to TPA
[12] = NMBR (neuromedin B receptor), read-out: % GPCR activation compared to TPA
[13] = AGTR1 (angiotensin II receptor, type 1), read-out: % GPCR activation compared to TPA
[14] = OPRM1, read-out: % GPCR activation compared to TPA, OPRM1 (opioid receptor, mu 1 (MOR1))
[15] = GPR144 (Adhesion G Protein-Coupled Receptor D2 (ADGRD2)), read-out: % GPCR activation compared to TPA
[16] = 5-HT1A (5-hydroxytryptamine receptor 1A), read-out: % GPCR activation compared to TPA
[17] = NPS (neuropeptide S receptor 1), read-out: % GPCR activation compared to TPA
[18] = GPR21 (G Protein-Coupled Receptor 21), read-out: % GPCR activation compared to TPA
[19] = GHRHR (growth hormone releasing hormone receptor), read-out: % GPCR activation compared to TPA
[20] = LTB4R (leukotriene B4 receptor), read-out: % GPCR activation compared to TPA
[21] = read-out: % GPCR activation compared to TPA, GPCR CYSLTR2 (cysteinyl leukotriene receptor 2)
[22] = read-out: % GPCR activation compared to TPA, NMBR (neuromedin B receptor)
[23] = read-out: % GPCR activation compared to TPA, AGTR1 (angiotensin II receptor, type 1)
[24] = read-out: % GPCR activation compared to TPA, GPR144 (Adhesion G Protein-Coupled Receptor D2 (ADGRD2))
[25] = read-out: % GPCR activation compared to TPA, 5-HT1A (5-hydroxytryptamine receptor 1A)
[26] = read-out: % GPCR activation compared to TPA, NPS (neuropeptide S receptor 1)
[27] = read-out: % GPCR activation compared to TPA, GPR21 (G Protein-Coupled Receptor 21)
[28] = read-out: % GPCR activation compared to TPA, GHRHR (growth hormone releasing hormone receptor)
[29] = read-out: % GPCR activation compared to TPA, LTB4R (leukotriene B4 receptor)

T4 sequence (Q7Z7M1 whole entry): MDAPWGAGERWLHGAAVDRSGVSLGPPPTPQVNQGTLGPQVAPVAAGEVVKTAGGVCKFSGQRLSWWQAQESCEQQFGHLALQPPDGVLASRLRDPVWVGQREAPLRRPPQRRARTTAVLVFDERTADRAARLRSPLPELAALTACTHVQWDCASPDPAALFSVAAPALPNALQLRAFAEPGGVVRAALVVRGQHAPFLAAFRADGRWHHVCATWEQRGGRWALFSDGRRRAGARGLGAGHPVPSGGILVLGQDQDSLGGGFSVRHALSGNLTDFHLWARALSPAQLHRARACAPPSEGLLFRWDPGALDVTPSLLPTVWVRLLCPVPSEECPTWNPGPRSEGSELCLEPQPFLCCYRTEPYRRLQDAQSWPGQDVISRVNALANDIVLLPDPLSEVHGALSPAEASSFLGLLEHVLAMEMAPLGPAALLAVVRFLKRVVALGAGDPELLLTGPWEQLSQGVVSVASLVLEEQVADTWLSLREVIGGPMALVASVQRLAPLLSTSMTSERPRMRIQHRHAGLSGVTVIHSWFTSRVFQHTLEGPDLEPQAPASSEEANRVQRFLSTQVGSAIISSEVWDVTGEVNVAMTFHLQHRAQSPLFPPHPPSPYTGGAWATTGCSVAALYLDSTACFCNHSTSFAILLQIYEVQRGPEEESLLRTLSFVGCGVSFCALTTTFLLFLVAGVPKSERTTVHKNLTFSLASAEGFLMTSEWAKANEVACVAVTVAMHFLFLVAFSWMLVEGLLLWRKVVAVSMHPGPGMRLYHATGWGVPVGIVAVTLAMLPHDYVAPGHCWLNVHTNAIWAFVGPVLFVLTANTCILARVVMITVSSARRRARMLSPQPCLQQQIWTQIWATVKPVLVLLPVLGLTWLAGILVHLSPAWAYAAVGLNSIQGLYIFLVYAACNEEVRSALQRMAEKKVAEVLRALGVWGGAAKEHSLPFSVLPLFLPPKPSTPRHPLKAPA
T9 sequence (Q15722 whole entry): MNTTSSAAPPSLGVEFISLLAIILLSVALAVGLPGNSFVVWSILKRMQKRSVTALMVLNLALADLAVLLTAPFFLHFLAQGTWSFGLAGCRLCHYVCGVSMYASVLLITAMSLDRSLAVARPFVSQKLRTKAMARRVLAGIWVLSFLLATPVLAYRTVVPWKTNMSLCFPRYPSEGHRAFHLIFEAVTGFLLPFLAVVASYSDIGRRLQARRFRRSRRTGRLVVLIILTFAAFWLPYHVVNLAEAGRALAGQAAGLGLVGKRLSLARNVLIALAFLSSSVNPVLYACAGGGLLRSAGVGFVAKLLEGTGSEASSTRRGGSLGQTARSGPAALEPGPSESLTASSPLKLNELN
Sequence of 348 GPCRs (Homo sapiens, UniProt P35372) (P35372 whole entry): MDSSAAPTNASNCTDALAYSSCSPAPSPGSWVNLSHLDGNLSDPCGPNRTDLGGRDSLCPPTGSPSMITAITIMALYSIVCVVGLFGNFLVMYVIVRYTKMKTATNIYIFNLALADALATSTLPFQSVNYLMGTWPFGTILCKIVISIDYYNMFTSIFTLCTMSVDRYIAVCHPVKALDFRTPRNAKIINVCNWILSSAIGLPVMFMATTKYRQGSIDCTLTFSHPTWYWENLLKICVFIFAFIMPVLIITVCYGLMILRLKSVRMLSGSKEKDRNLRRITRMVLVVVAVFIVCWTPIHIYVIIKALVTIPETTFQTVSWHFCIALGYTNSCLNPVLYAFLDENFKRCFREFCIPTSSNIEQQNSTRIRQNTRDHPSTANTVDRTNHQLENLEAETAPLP
T2 sequence (P28336 whole entry): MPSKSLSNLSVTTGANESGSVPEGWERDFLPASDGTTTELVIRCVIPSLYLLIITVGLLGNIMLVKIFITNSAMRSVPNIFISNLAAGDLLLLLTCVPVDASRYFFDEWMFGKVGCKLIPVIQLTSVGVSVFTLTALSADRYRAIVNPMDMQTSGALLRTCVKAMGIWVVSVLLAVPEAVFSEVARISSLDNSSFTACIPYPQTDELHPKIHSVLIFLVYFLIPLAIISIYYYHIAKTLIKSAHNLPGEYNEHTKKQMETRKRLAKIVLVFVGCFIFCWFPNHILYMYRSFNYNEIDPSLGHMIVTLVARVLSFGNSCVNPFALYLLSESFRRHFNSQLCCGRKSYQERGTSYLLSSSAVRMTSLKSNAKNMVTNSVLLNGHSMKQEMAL
T7 sequence (Q99679 whole entry): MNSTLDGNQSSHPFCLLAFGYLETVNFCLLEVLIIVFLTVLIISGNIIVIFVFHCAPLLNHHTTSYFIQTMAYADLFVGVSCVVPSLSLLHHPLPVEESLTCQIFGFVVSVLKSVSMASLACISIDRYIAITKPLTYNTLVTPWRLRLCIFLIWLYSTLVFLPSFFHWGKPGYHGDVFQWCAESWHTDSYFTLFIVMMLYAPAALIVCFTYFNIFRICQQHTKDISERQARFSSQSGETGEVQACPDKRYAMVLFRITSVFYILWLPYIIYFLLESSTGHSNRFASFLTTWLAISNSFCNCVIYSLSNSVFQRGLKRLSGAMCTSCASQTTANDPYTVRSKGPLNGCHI

Structure (SMILES) | activation at 10 µM (348 GPCRs [1]; [11]) | activation at 10 µM (348 GPCRs [2]; [12]) | activation at 10 µM (348 GPCRs [3]; [13]) | activation at 100 µM (348 GPCRs [5]; [15]) | activation at 10 µM (348 GPCRs [6]; [16]) | activation at 10 µM (348 GPCRs [7]; [17]) | activation at 100 µM (348 GPCRs [8]; [18]) | activation at 100 µM (348 GPCRs [9]; [19]) | activation at 10 µM (348 GPCRs [10]; [20]) | activation at 10 µM (348 GPCRs [4]; [14]) | activation at 10 µM (348 GPCRs [1]; [21]) | activation at 10 µM (348 GPCRs [2]; [22]) | activation at 10 µM (348 GPCRs [3]; [23]) | activation at 100 µM (348 GPCRs [5]; [24]) | activation at 10 µM (348 GPCRs [6]; [25]) | activation at 10 µM (348 GPCRs [7]; [26]) | activation at 100 µM (348 GPCRs [8]; [27]) | activation at 100 µM (348 GPCRs [9]; [28]) | activation at 10 µM (348 GPCRs [10]; [29]) | further results
CCC(CC)COC(=O)[C@H](C)N[P@](=O)(OC[C@H]1O[C@@](C#N)(c2ccc3c(N)ncnn23)[C@H](O)[C@@H]1O)Oc1ccccc1 [remdesivir] | – | – | – | – | – | – | – | – | – | -2.36% | -0.408% | 0.461% | 1.2% | 0.938% | 1.91% | -0.795% | -0.776% | 5.92% | -0.224% | –
CC(C)OC(=O)[C@H](C)N[P@](=O)(OC[C@H]1O[C@@H](n2ccc(=O)[nH]c2=O)[C@](C)(F)[C@@H]1O)Oc1ccccc1 [sofosbuvir] | – | – | – | – | – | – | – | – | – | -0.878% | -0.91% | -0.697% | 2.52% | 0.00791% | -0.274% | 0.112% | 0.161% | -2.19% | 0.62% | –

More lines, main results first:

activation at 10 µM (348 GPCRs [1]; [11]) | activation at 10 µM (348 GPCRs [2]; [12]) | activation at 10 µM (348 GPCRs [3]; [13]) | activation at 100 µM (348 GPCRs [5]; [15]) | activation at 10 µM (348 GPCRs [6]; [16]) | activation at 10 µM (348 GPCRs [7]; [17]) | activation at 100 µM (348 GPCRs [8]; [18]) | activation at 100 µM (348 GPCRs [9]; [19]) | activation at 10 µM (348 GPCRs [10]; [20]) | Structure (SMILES) | activation at 10 µM (348 GPCRs [4]; [14]) | activation at 10 µM (348 GPCRs [1]; [21]) | activation at 10 µM (348 GPCRs [2]; [22]) | activation at 10 µM (348 GPCRs [3]; [23]) | activation at 100 µM (348 GPCRs [5]; [24]) | activation at 10 µM (348 GPCRs [6]; [25]) | activation at 10 µM (348 GPCRs [7]; [26]) | activation at 100 µM (348 GPCRs [8]; [27]) | activation at 100 µM (348 GPCRs [9]; [28]) | activation at 10 µM (348 GPCRs [10]; [29]) | further results
-1.21% | -1.1% | 1.08% | -0.695% | -0.48% | -1.43% | 0.0472% | 1.38% | 0.849% | N#C[C@@]1(c2ccc3c(N)ncnn23)O[C@H](CO)[C@@H](O)[C@H]1O [GS441524] | -2.75% | – | – | – | – | – | – | – | – | – | –
– | -0.624% | 0.178% | -0.934% | -0.504% | -0.693% | -0.0313% | 6.96% | -0.299% | NC(=O)c1nc(F)cnc1O [favipiravir, 6-fluoro-3-hydroxy-2-pyrazinecarboxamide] | – | – | – | – | – | – | – | – | – | – | activation at 100 µM (348 GPCRs [1]; GPCR CYSLTR2 (cysteinyl leukotriene receptor 2), 100μM, read-out: % GPCR activation compared to TPA): -1.33%; activation at 10 µM (348 GPCRs [4]; OPRM1, OPRM1 (opioid receptor, mu 1 (MOR1)), read-out: % GPCR activation compared to TPA): -1.89%
-0.187% | 0.279% | -0.396% | -1.45% | -1.27% | -0.116% | 0.1% | -0.966% | -0.697% | CC(C)C(=O)OC[C@H]1O[C@@H](n2ccc(NO)nc2=O)[C@H](O)[C@@H]1O [molnupiravir] | -3.97% | – | – | – | – | – | – | – | – | – | –
